Measurements published in patent US9921215B2, “Method for detecting ligand using FRET biosensor” (KOREA RESEARCH INSTITUTE OF BIOSCIENCE AND BIOTECHNOLOGY, priority 2009, dated 2018).

Key:
[1] = biological target: T1, CmglBY-SS glucose FRET biosensor: fusion protein ECFP-GGBP-EYFP of E. coli MG1655 GGBP (galactose/glucose-binding protein) (Escherichia coli, UniProt P0AEE5); assay: Ligand titration of FRET biosensor CmglBY-SS (glucose sensor) at its critical temperature; set-up: 6xHis (C); made in house; host or cells: E. coli
Text: In addition, an expression vector of CmglBY-SS, a biosensor for measuring glucose used in the present invention, was constructed in the following manner.
First, ECFP gene was amplified by PCR using a pECFP vector as a template and a forward primer of SEQ ID NO: 3 together with a reverse primer of SEQ ID NO: 13 prepared to overlap with the nucleotide sequence of the N-terminus of GGBP. Likewise, GGBP gene was amplified by PCR using a chromosomal DNA, extracted from E. coli MG1655, as a template, and a forward primer of SEQ ID NO: 14 together with a reverse primer of SEQ ID NO: 15 containing a BamHI restriction sequence. […]
(§1) The fluorescence of the FRET biosensors was measured using the fluorescence analysis system Cary Eclipse (Varian Inc., Mulgrave, Australia) under the conditions in which the proteins of each biosensor were controlled to the same concentration of 0.5 μM in 0.5 ml of PBS buffer (pH 7.4). […]
(§2) Also, Δratio that defines the detection capability of the FRET biosensor was determined according to the following equation 4: Δratio=ratiomax−ratiomin [Equation 4]
(§3) The titration curves of the FRET biosensors were expressed as Sigmoidal curves using the 4-parameter Hill equation of Sigmaplot 10.0 (Systat software Inc., USA) based on changes in the ratio measured while increasing the ligand concentration from 1 nM to 10 mM. […]
Target sequence in this assay (P0AEE5 24-332 with tags or gaps limits assumed): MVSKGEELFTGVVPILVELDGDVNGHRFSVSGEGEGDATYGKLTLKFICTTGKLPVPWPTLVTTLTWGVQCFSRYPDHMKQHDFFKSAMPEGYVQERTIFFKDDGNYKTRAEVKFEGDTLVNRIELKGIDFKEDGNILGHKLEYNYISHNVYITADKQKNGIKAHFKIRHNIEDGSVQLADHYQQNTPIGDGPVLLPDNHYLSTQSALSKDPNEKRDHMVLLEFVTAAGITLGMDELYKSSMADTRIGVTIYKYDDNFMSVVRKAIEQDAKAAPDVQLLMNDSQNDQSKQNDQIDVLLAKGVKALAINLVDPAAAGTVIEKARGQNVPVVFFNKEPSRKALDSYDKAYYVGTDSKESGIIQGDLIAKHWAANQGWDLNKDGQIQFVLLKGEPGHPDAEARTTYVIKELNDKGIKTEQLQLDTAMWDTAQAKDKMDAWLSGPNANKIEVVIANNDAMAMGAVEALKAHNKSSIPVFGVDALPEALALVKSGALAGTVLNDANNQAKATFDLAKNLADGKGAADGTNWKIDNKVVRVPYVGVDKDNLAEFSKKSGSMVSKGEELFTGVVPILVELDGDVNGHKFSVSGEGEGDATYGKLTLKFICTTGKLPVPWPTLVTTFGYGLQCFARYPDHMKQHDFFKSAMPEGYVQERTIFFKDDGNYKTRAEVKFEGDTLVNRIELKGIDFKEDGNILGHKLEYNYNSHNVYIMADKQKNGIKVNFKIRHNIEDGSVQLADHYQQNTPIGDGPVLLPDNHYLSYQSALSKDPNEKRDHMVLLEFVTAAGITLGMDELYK

[2] = biological target: T2, CaraFY-PR arabinose FRET biosensor: fusion protein ECFP-ARBP-EYFP of E. coli MG1655 ARBP (arabinose-binding protein) (Escherichia coli, UniProt P02924); assay: Specificity of the arabinose FRET biosensor for various sugars; conditions: critical temperature 49 °C; ligand 100 μM, 1 mM, 10 mM
Procedure: (§4) Analysis of the specificities of the FRET biosensors for various ligands was performed using 19 kinds of sugars, including monosaccharides, polyscaccharides and sugar alcohols.
(§5) To measure the specificities of the sensors, each of the purified FRET biosensors was added to 0.5 ml of PBS buffer (pH 7.4) at a concentration of 0.5 μM such that the concentration of each ligand reached 100 μM, 1 mM, 10 mM, etc. In 3 minutes after the peltier device surrounding the cuvette has reached each of the critical temperatures determined in Example 3, fluorescence was measured.

[3] = biological target: T1, CmglBY-SS glucose FRET biosensor: fusion protein ECFP-GGBP-EYFP of E. coli MG1655 GGBP (galactose/glucose-binding protein); assay: Specificity of the glucose FRET biosensor for various sugars; conditions: critical temperature 50 °C; ligand 100 μM, 1 mM, 10 mM
Procedure: as §4, §5
Target sequence in this assay (P0AEE5 24-332 limits assumed): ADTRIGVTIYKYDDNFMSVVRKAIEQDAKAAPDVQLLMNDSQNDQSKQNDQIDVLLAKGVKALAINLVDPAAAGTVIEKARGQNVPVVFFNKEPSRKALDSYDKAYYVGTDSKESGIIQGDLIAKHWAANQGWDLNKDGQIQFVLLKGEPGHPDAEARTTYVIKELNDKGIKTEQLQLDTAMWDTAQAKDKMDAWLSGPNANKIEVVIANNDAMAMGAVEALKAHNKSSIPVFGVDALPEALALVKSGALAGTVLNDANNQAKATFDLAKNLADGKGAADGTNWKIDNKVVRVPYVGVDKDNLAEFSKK

[4] = biological target: T2, CaraFY-PR arabinose FRET biosensor: fusion protein ECFP-ARBP-EYFP of E. coli MG1655 ARBP (arabinose-binding protein); assay: Ligand titration of FRET biosensor CaraFY-PR (arabinose sensor) at its critical temperature; set-up: 6xHis (C); made in house; host or cells: E. coli
Text: Likewise, in order to construct an expression vector of CaraFY-PR, a biosensor for measuring arabinose, ECFP gene was amplified by PCR using primers of SEQ ID NOs: 3 and 10, and ARBP gene was amplified by PCR using a chromosomal DNA, extracted from E. coli MG1655, as a template, and primers of SEQ ID NOs: 11 and 12.
The amplified ECFP and ARBP genes were amplified by PCR using primers of SEQ ID NOs: 3 and 12, thus obtaining a synthetic gene of ECFP-ARBP. The ECFP-ARBP gene was inserted into the ECFP-MBP gene position of the pECMY-BII expression vector, thereby constructing a pECaraFY-PR vector.
as §1, §2, §3
Target sequence in this assay (P02924 other isoform, or with tags, fused parts or gaps): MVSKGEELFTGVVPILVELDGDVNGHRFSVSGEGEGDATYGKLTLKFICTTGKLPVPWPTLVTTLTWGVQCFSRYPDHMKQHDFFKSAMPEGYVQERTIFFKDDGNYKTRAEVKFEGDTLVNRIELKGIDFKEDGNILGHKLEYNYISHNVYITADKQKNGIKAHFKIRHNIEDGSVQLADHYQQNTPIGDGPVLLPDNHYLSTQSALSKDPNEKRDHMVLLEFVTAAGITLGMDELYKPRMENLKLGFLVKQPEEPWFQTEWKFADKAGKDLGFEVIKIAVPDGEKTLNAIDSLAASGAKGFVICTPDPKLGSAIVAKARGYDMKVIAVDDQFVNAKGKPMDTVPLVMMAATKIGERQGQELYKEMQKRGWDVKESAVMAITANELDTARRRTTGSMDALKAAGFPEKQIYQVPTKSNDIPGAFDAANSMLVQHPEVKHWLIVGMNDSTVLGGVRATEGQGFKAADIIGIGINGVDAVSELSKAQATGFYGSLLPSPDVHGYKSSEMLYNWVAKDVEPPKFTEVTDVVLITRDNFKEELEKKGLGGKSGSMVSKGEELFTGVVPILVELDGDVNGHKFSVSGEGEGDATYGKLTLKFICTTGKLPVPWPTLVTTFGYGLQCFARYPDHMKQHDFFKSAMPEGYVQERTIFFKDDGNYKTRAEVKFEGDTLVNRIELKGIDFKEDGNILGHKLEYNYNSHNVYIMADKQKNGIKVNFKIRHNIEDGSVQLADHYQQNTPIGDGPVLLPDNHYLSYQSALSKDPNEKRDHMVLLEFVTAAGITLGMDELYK

[5] = biological target: CalsBY-QV allose FRET biosensor: fusion protein ECFP-ALBP-EYFP of E. coli MG1655 ALBP (allose-binding protein) (Escherichia coli, UniProt P39265); assay: Specificity of the allose FRET biosensor for various sugars; conditions: critical temperature 49 °C; ligand 100 μM, 1 mM, 10 mM; ribose compared with measurement at 25 °C in U.S. Pat. No. 7,432,353
CalsBY-QV allose FRET biosensor: fusion protein ECFP-ALBP-EYFP of E. coli MG1655 ALBP (allose-binding protein), sequence (P39265 24-311): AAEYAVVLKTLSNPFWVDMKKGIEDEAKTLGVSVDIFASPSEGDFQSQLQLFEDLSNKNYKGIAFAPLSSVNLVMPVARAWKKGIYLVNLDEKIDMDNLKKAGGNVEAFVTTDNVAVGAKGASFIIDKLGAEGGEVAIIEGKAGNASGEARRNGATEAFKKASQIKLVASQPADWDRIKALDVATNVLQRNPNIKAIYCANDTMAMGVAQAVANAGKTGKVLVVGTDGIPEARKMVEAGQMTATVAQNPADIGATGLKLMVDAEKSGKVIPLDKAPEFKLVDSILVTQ
Procedure: as §4, §5

[6] = cited from earlier work

OC[C@H]1OC(O)[C@H](O)[C@@H](O)[C@@H]1O (stereo partly shown) [glucose]
Kd [1]: 9.2 ± 0.5 µM

OC[C@H]1OC(O)[C@H](O)[C@@H](O)[C@H]1O (stereo partly shown) [galactose]
affinity [2]: very high affinity | affinity [3]: very high affinity

OC1OC[C@H](O)[C@H](O)[C@H]1O (stereo partly shown) [arabinose]
Kd [4]: 67 ± 4 µM

OC1OC[C@@H](O)[C@@H](O)[C@H]1O (stereo partly shown) [ribose]
specificity for other sugars [5]: reduced specificity

B1: ARBP: E. coli periplasmic arabinose-binding protein (protein, UniProt P02924 24-329, looked up)
L-arabinose-binding …: ENLKLGFLVKQPEEPWFQTEWKFADKAGKDLGFEVIKIAVPDGEKTLNAIDSLAASGAKGFVICTPDPKLGSAIVAKARGYDMKVIAVDDQFVNAKGKPMDTVPLVMMAATKIGERQGQELYKEMQKRGWDVKESAVMAITANELDTARRRTTGSMDALKAAGFPEKQIYQVPTKSNDIPGAFDAANSMLVQHPEVKHWLIVGMNDSTVLGGVRATEGQGFKAADIIGIGINGVDAVSELSKAQATGFYGSLLPSPDVHGYKSSEMLYNWVAKDVEPPKFTEVTDVVLITRDNFKEELEKKGLGGK
Unfolding temperature in the presence of ligand ([6]; 1 mM arabinose (ARBP) / glucose (GGBP)): 59 °C | Unfolding temperature in the absence of ligand ([6]; no arabinose (ARBP) / no glucose (GGBP)): 53.5 °C
